Results taken from patent publication US20240285637A1, “PHOSPHODIESTERASE INHIBITORS FOR THE MITIGATION OF FRAGILE X SYNDROME SYMPTOMS” (THE ROYAL INSTITUTION FOR THE ADVANCEMENT OF …, priority 2021, published 2024).
“Also recorded” adds a separate entry of the source.

Columns and labels:
Assay type in all cases: cell-based, mouse
[1] = system: cerebellar stellate cells; test: Cell-attached recordings of action currents (intrinsic plasticity) after HFS of parallel fibers; details: WT stellate cells, 10 μM APV, 25 minutes after HFS
Text: Cerebellum slice preparation: Mice (P21-35) were anesthetized with isoflurane and immediately decapitated. A block of cerebellar vermis was rapidly dissected from the mouse head and submerged in an ice-cold cutting solution perfused with carbogen gas (95% O2, 5% CO2). Cutting solution contains (in mM): 235 sucrose, 2.5 KCl, 1.25 NaH2PO4, 28 NaHCO3, 0.5 CaCl2, 7 MgCl2, 28 D-glucose, 1 ascorbic acid, and 3 sodium pyruvate (pH 7.4; 305-315 mOsmol/L). The block of vermis was then fastened to a platform, transferred to the slicing chamber and again submerged in ice-cold cutting solution, bubbled with carbogen throughout the remainder of the procedure. Thin slices of cerebellar vermis (300 μm) were obtained with a vibrating tissue sectioner (Leica VT1200; Leica Instruments, Nussloch, Germany). The slices were transferred to oxygenated artificial cerebrospinal fluid (ACSF) and held at room temperature (21° C.-23° C.) for at least 1 h before recordings were performed. […]
For extracellular stimulations, thin walled borosilicate glass electrodes (OD 1.65 mm, ID 1.15 mm; King Precision Glass Inc, Claremont, CA, USA) were used with a tip resistance of <3 MΩ when filled with ACSF. […] To minimize variability between responses, the stimulating electrode was positioned 50-100 μm away from the recorded cell. […]

[2] = system: cerebellar stellate cells; test: Minimal stimulation protocol, evoked IPSCs before and after HFS (failure rate of GABAergic transmission)
[3] = system: blood vessels (capillaries) in the molecular layer of the cerebellum; test: Acute slice vascular reactivity, cerebellar vermis slices (U46619 constriction, NMDA dilation); set-up: effect on the NMDA response (vasodilation) / vasodilation (direct action on blood vessels): dose or concentration left out as unconfirmed; details: for vasodilation of pre-constricted blood vessels: NMDA 50 μM, 5 mins, after U46619
[4] = system: blood vessels in the somatosensory cortex; test: Acute slice vascular reactivity, somatosensory cortex; set-up: effect on the NMDA response (vasodilation) / vasodilation (direct action on blood vessels): dose or concentration left out as unconfirmed; details: for vasodilation of pre-constricted blood vessels: bath application of NMDA
[5] = system: middle or posterior cerebral arteries; test: Vascular reactivity of isolated pressurized cerebral arteries; details: various concentrations, extraluminal application
Method: Vascular reactivity: Middle or posterior cerebral arteries were isolated from both WT (n=9) and Fmr1-KO (n=4) mice and vessel diameter was measured using video microscopy (Living Systems Instrumental, Burlington, VT) as previously described. Blood vessels were cannulated in a closed sac preparation in 1×KREBS buffer, and gradually pressurized to 60 mmHg. Vasoconstriction was measured in response to extraluminal application of either thromboxane A2 receptor agonist U46619, NMDA, or acetylcholine (ACh) at increasing concentrations (10-9 to 10-3 mol/L, Tocris Bioscience Ellisville, MO, USA). Data is presented as a percentage change from the basal diameter.

[6] = Fmr1 KO stellate cells, 10 μM external MPEP, baseline, n=7
[7] = Fmr1 KO stellate cells, 10 μM external MPEP, post-HFS, n=7

SMILES: N[C@H](CCCP(=O)(O)O)C(=O)O [APV, (2R)-amino-5-phosphonovaleric acid]
- long-term increase in basal firing rates after HFS of PFs [1]: no long-term increase; also recorded: no increase in action potential firing
- decrease of failure rate post-HFS ([2]; WT mice, in the presence of APV, data not shown): ~5%

SMILES: O=C(O)CN(CC(=O)O)c1ccccc1OCCOc1ccccc1N(CC(=O)O)CC(=O)O [BAPTA, 1,2-bis(o-aminophenoxy)ethane-N,N,N′,N′-tetraacetic acid)]
- change of failure rate post-HFS ([2]; WT mice, high BAPTA internal solution, data not shown): did not change their failure rate

SMILES: COc1ccc2c(c1)c(C1=C(c3c[nH]c4ccccc34)C(=O)NC1=O)cn2CCCN(C)C [Gö6983]
- change of failure rate from baseline to post-HFS ([2]; WT mice, kinase (PKC) inhibitor): did not change

SMILES: Cc1cccc(C#Cc2ccccc2)n1 [MPEP, 2-Methyl-6-(phenylethynyl)-pyridine]
- onset of iLTD ([2]; Fmr1 KO stellate cells, 10 μM MPEP): prevents the onset of iLTD
- failure rate of GABAergic transmission (mean) [2, 6]: 77.21+/−3.75%
- time latency of synaptic events (mean) [2, 6]: 2.78 ± 0.24 ms
- failure rate of GABA-evoked events (mean) [2, 7]: 79.98+/−4.58%
- time latency of synaptic events (mean) [2, 7]: 2.32 ± 0.29 ms
- change of failure rate after HFS protocol ([2]; α3 KO mice, MPEP, data not shown): slightly decreased their failure rate

SMILES: CN[C@H](CC(=O)O)C(=O)O [NMDA, N-methyl-D-aspartate]
- vasodilation of pre-constricted blood vessels ([3]; Fmr1 KO cerebellar slices): failed to promote blood vessel dilation; also recorded: failed to induce vasodilation
- vasodilation of pre-constricted blood vessels ([3]; WT cerebellar slices): caused vasodilation; also recorded: robust vasodilation
- vasodilation of pre-constricted blood vessels ([4]; Fmr1 KO cortex): failed to induce vasodilation
- vasodilation of pre-constricted blood vessels ([4]; wildtype cortical blood vessels): robust vasodilation

SMILES: CCCCC[C@H](O)/C=C/[C@@H]1[C@@H](C/C=C\CCCC(=O)O)[C@H]2CO[C@@H]1C2 [U46619]
- frequency of blood vessel constriction, Fmr1 KO brain slices compared to WT ([3]; 75 nM): much less frequently
- vasoconstriction, Fmr1 KO brain slices compared to WT ([3]; 150 nM): reduced vasoconstriction
- blood vessels with no response (no constriction), number ([3]; Fmr1 KO mice, [U46619] 75 nM): 2
- blood vessels with response (constricted), number ([3]; Fmr1 KO mice, [U46619] 75 nM): 8
- proportion of blood vessels that constricted ([3]; Fmr1 KO mice, [U46619] 75 nM): 80%
- blood vessels with no response (no constriction), number ([3]; Fmr1 KO mice, [U46619] 150 nM): 11
- blood vessels with response (constricted), number ([3]; Fmr1 KO mice, [U46619] 150 nM): 25
- proportion of blood vessels that constricted ([3]; Fmr1 KO mice, [U46619] 150 nM): 69%
- blood vessels with no response (no constriction), number ([3]; WT mice, [U46619] 75 nM): 3
- blood vessels with response (constricted), number ([3]; WT mice, [U46619] 75 nM): 10
- proportion of blood vessels that constricted ([3]; WT mice, [U46619] 75 nM): 77%
- blood vessels with no response (no constriction), number ([3]; WT mice, [U46619] 150 nM): 2
- blood vessels with response (constricted), number ([3]; WT mice, [U46619] 150 nM): 18
- proportion of blood vessels that constricted ([3]; WT mice, [U46619] 150 nM): 90%
- ability to vasoconstrict blood vessels, WT vs Fmr1 KO in all the conditions ([3]; cerebellum (FIG. 5N)): similar
- vasoconstriction of MCA/PCA, Fmr1 KO compared to WT [5]: reduced
- ability to vasoconstrict blood vessels, WT vs Fmr1 KO in all the conditions ([4]; cortex (FIG. 5O)): similar

SMILES: COc1ccc(Cc2nccc3cc(OC)c(OC)cc23)cc1OC [papaverine]
- vasodilation (direct action on blood vessels) ([3]; Fmr1 KO cerebellum): able to induce vasodilation
- vasodilation (direct action on blood vessels) ([4]; Fmr1 KO cortex): able to induce vasodilation

SMILES: NC1=N[C@H](O)[C@H]2[C@H]3O[C@]4(O)O[C@@H]([C@@H](O)[C@@]2(N1)[C@@H]4O)[C@]3(O)CO [tetrodotoxin]
- effect on NMDA-induced vasodilation [3]: completely blocked vasodilation
- effect on NMDA-induced vasodilation [4]: blocked
